The values that follow come from article PMC9652372, “Glycolytic flux control by drugging phosphoglycolate phosphatase” (Nature Communications, 2022).

A short description of series [1]: LC-MS quantification of intracellular CP1. The series is classed as in vitro ADME, human. To be noted: for Abs. CP1 / Abs. Peak Area, CP1 (neg.): PGP-WT, P5.
Description: Cells (~1 million cells/dish) were rinsed in PBS (37 °C), trypsinized, sedimented at 300 × g, 4 °C for 4 min, washed once in PBS (4 °C), and sedimented again at 300 × g, 4 °C for 4 min. Cell pellets were snap-frozen in liquid nitrogen.
Water-soluble metabolites were extracted with 50 µl ice-cold MeOH/H2O (80/20, v/v) containing 0.01 μM lamivudine. After centrifugation of the resulting homogenates, supernatants were transferred to a RP18 SPE (50 mg/1 mL tubes; Phenomenex) that had been activated with 0.5 mL CH3CN and conditioned with 0.5 mL of MeOH/H2O (80/20, v/v). The eluate of the RP18 SPE-column was evaporated in a SpeedVac (Savant, Thermo Fisher Scientific). Dry sample extracts were redissolved in 75 μL 5 mM NH4OAc in CH3CN/H2O (50/50, v/v). Twenty µL of supernatant were transferred to LC-vials. Metabolites were analyzed by LC-MS using the following settings: 3 μL of each sample was applied to an XBridge Premier BEH Amide (2.5 μm particles, 100 × 2.1 mm) UPLC-column (Waters). Metabolites were separated with Solvent A, consisting of 5 mM NH4OAc in CH3CN/H2O (40/60, v/v) and solvent B consisting of 5 mM NH4OAc in CH3CN/H2O (95/5, v/v) at a flow rate of 200 µL/min at 45 °C by LC using a DIONEX Ultimate 3000 UHPLC system (Thermo Fisher Scientific). A linear gradient starting after 2 min with 100% solvent B decreasing to 10% solvent B within 23 min, followed by 16 min 10% solvent B and a linear increase to 100% solvent B in 2 min was applied. Recalibration of the column was achieved by a 7 min prerun with 100% solvent B before each injection. […] All MS-analyses were performed on a high-resolution Q Exactive mass spectrometer equipped with a HESI probe (Thermo Fisher Scientific) in alternating positive- and negative full MS mode with a scan range of 69.0–1000 m/z at 70 K resolution and the following ESI source parameters: Sheath gas: 30, auxiliary gas: 1, sweep gas: 0, aux gas heater temperature: 120 °C, spray voltage: 3 kV, capillary temperature: 320 °C, S-lens RF level: 50. XIC generation and signal quantitation was performed using TraceFinder v3.3 (Thermo Fisher Scientific) integrating peaks which corresponded to the calculated monoisotopic metabolite masses (MIM + /− H + ± 3 mMU). Analyses of PGP-WT and PGP-KO cells were performed in n = 5 biologically independent experiments.
Series [2] addresses T1, PGP^P127E (Mus musculus, UniProt Q8CHP8, P127E).
T1 sequence (Q8CHP8 1-321 P127E): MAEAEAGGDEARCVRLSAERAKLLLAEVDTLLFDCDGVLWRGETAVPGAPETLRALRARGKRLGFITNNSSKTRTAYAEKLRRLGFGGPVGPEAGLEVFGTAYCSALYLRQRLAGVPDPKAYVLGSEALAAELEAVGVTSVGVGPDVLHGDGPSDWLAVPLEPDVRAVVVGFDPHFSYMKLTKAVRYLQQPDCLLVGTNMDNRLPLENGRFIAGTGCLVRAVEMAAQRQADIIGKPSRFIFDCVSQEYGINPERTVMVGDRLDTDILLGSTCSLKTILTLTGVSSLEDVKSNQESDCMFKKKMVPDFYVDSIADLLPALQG
To be noted: read-out: enzyme activity in presence of CP1 relative to DMSO control (1), mPGP-P127E.

The subject of series [3] is HT1080 cells. In words: Cell proliferation assay (EdU incorporation). The series is classed as cell-based, human.
Description: Parental HT1080 cells or the indicated CRISPR/Cas9-engineered control (PGP-WT) or PGP-KO cells were grown in complete DMEM. For the expression of PGP-WT or PGP-P127E, cells were transfected with either the pcDNA3 empty vector control or the indicated constructs in pcDNA3 using X-tremeGENE (Roche/Merck), according to the manufacturer’s instructions. […] To assess DNA synthesis, cells were labeled for 2.5 h with 10 μM 5-ethynyl-2'-deoxyuridine (EdU), fixed and permeabilized according to the manufacturer’s recommendations (Click-iT EdU Alexa Fluor 488 imaging kit, Invitrogen/Thermo Fisher). Cells were counterstained with 4′,6-diamidine-2-phenylindole (DAPI), embedded with Fluoromount-G (Thermo Fisher), and imaged on a Nikon TE Eclipse epifluorescence microscope equipped with a 4 × objective and NIS elements software AR 5.02.00. EdU and/or DAPI-positive cells were analyzed using the ImagePro-Plus software version 7.0 (Media Cybernetics). Statistical significance was assessed using GraphPad Prism 9.4.1 software.
In series [4] the target is T2, murine PGP-WT / PGP-C297S (Mus musculus, UniProt Q8CHP8).
T2 construct: His6 (N, cleaved yes); made in house; host or cells: Escherichia coli BL21 (DE3)
T2 sequence (Q8CHP8 1-321): T1 sequence (Q8CHP8 1-321 P127E) with E127P
Description: Size-exclusion chromatography, PGP self-association. The settings on record: SEC, PGP-WT 30 µM; CP1 100 µM. On the procedure:
(§1) A volume of 900 µL was loaded onto a Superdex 200 10/300GL (Cytiva) size exclusion chromatography column operated on an ÄKTA liquid chromatography system.
(§2) Error bars not shown are hidden by the symbols. (c) PGP self-association in the absence or presence of CP1. Size- exclusion chromatography (SEC) of purified, recombinant murine PGP-WT in comparison to PGP-C297 […]
(§3) (1 picture or pasted object on this page, not shown here)
(§4) (100 µM). SEC profiles of PGP -WT are the mean of n=3 independent experiments; PGP -C297S […]
(§5) independent experiments. Statistical testing was done using a two-sided t-test, and the p- value

Series [5] deals with T3, murine PGP-WT / PGP-C297S (Mus musculus, UniProt Q8CHP8, C297S).
T3 construct: His6 (N, cleaved yes); made in house; host or cells: Escherichia coli BL21 (DE3)
T3 sequence (Q8CHP8 1-321 C297S): T1 sequence (Q8CHP8 1-321 P127E) with E127P, C297S
Described as above. The settings on record: SEC; 100 µM CP1. On the procedure: as §1, §2, §3, §4, §5

Where a chain is given by its changes, count along the chain named. Where “and” joins values, the source holds several entries; their conditions need not be identical. Identical values can stand only once.

For the compound `O=C(Nc1ccccc1C(=O)O)c1ccc(Oc2ccc(C(=O)Nc3ccccc3C(=O)O)cc2)cc1` [CP1], in series [1] (100 µM CP1), the “less CP1 detected than expected” value is on record as 39%. Moreover, the “Abs. CP1” value in series [1] (3h 33 uM CP1) was 0.136 pmol and 0.115 pmol and 0.127 pmol; in series [1] (7h 100 uM CP1), 0.229 pmol and 0.231 pmol and 0.241 pmol. The “Abs. Peak Area, CP1 (neg.)” value in series [1] (3h 33 uM CP1) was 1166078 and 1127449 and 1204353; in series [1] (7h 100 uM CP1) it was 2322474 and 2574644 and 2821728. Moreover, the remaining activity at 32.36 µM in series [2] (CP1 log[M] -4.49, Exp #1-#3) worked out at 15%. Further, the remaining activity at 15.85 µM in series [2] (CP1 log[M] -4.80, Exp #1-#3) is 27%. Moreover, the remaining activity at 7.943 µM in series [2] (CP1 log[M] -5.10, Exp #1-#3) was 45%. Further, the remaining activity at 3.981 µM in series [2] (CP1 log[M] -5.40, Exp #1-#3) stood at 64%. Further, in series [2] (CP1 log[M] -5.70, Exp #1-#3), the remaining activity at 1.995 µM amounted to 80%. In addition, the remaining activity at 1 µM in series [2] (CP1 log[M] -6.00, Exp #2-#3) came to 85%. Further, the remaining activity at 0.5012 µM in series [2] (CP1 log[M] -6.30, Exp #1-#3) came out at 81%. Besides, the remaining activity at 0.2512 µM in series [2] (CP1 log[M] -6.60, Exp #1-#3) was 94%. Also, the remaining activity at 0.1259 µM in series [2] (CP1 log[M] -6.90, Exp #1-#3) came out at 92%. In addition, the Edu-positive/DAPI-positive cells in series [3] (KO C2 CP1 (S)) was 47.70% and 42.53% and 47.97%; in series [3] (WT D5 CP1 (S)), 47.76% and 46.38% and 44.69%; in series [3] (WT D5 EV CP1 (L)) it was 8.23% and 14.09% and 6.30%. In series [4], the “max. peak height of PGP tetramer/PGP total” value was 0.166 and 0.138 and 0.1887. Moreover, the “effect on PGP^C297S self-association” value in series [5] was “did not affect”.
